Test results: ChEMBL document CHEMBL1139593, “Synthesis and biological evaluation of chromone carboxamides as calpain inhibitors” (Bioorg Med Chem Lett, 2005)
Square brackets hold non-standard residues; d marks the D form. Peptide text beside a SMILES is read from it. * marks the point of attachment. ξ: configuration not given here. ξF = NC(Cc1ccccc1)C(=O)O; Cbz = O=C(OCc1ccccc1)*

Legend:
[1] = molecular target: Procathepsin L (Homo sapiens) (UniProt P07711); test: Percent inhibition of human liver cathepsin L at 2 uM
[2] = molecular target: Procathepsin L (Homo sapiens) (UniProt P07711); test: Percent inhibition of human liver cathepsin L at 0.2 uM
Cathepsin B (Bos taurus) [3] = molecular target: Cathepsin B (Bos taurus) (UniProt P07688); test: Percent inhibition of bovine cathepsin B at 2 uM
Cathepsin B (Bos taurus) [4] = molecular target: Cathepsin B (Bos taurus) (UniProt P07688); test: Percent inhibition of bovine cathepsin B at 20 uM
[5] = molecular target: Procathepsin L (Homo sapiens) (UniProt P07711); test: Percent inhibition of human liver cathepsin L at 20 uM
Cathepsin B (Bos taurus) [6] = molecular target: Cathepsin B (Bos taurus) (UniProt P07688); test: Percent inhibition of bovine cathepsin B at 0.2 uM
[7] = molecular target: T1, Calpain-1 catalytic subunit (Homo sapiens, UniProt P07384); test: Inhibitory concentration against human plasma mu-calpain; type: cell-free
T1 sequence (P07384 whole entry): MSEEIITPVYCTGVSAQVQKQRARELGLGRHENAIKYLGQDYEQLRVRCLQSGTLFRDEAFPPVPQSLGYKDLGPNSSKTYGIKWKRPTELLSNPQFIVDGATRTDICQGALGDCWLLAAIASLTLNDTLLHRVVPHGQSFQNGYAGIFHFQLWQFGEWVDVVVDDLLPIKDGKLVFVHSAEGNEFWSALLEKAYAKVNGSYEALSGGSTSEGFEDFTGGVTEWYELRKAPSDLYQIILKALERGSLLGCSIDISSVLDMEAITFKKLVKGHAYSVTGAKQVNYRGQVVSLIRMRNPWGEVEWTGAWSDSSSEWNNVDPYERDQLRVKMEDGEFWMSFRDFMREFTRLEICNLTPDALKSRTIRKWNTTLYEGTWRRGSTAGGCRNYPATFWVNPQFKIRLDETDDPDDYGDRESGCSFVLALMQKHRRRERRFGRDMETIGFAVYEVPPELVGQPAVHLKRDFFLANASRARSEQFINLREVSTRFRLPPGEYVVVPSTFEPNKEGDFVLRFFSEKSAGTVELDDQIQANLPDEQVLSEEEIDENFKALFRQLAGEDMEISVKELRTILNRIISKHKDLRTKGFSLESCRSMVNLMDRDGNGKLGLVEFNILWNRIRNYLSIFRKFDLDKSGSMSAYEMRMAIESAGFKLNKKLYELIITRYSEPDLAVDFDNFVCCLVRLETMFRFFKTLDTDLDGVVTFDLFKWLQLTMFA

Procathepsin L (Homo sapiens), sequence (P07711 114-333 limits assumed): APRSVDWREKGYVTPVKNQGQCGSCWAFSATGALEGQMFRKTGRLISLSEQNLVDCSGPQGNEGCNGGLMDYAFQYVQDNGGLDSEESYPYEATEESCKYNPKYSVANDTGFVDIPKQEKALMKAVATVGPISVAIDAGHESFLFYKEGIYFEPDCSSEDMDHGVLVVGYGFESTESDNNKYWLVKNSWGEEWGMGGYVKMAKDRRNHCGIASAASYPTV

Row | Compound | inhibition [1] [%] | inhibition [2] [%] | inhibition (Cathepsin B (Bos taurus) [3]) [%] | inhibition (Cathepsin B (Bos taurus) [4]) [%] | inhibition [5] [%] | inhibition (Cathepsin B (Bos taurus) [6]) [%] | IC50 [7] [nM]
1 | Cc1c(C(=O)N[C@@H](Cc2ccccc2)C(=O)C(=O)NCCN2CCOCC2)oc2cc3c(cc2c1=O)OCCO3 | 26.5 | 0 | 0 | 20.2 | 92 | 0 | > 20000
2 | Cc1c(C(=O)N[C@@H](Cc2ccccc2)C(=O)C(=O)NCc2ccccc2)oc2cc3c(cc2c1=O)OCCO3 | 83.8 | 12.7 | 18.6 | 58.2 | 95.8 | 0 | 2480
3 | Cc1c(C(=O)N[C@@H](Cc2ccccc2)C(=O)C(=O)NC(C)C)oc2ccccc2c1=O | 17.5 | 2.1 | 0 | 42.6 | 71.2 | 0 | 5690
4 | Cc1c(C(=O)N[C@@H](Cc2ccccc2)C(=O)C(N)=O)oc2cc3c(cc2c1=O)OCCO3 | 86.3 | 32.5 | 60.8 | 92.2 | 96.6 | 26.3 | 810
5 | CCc1c(C(=O)N[C@@H](Cc2ccccc2)C(=O)C(N)=O)oc2ccccc2c1=O | 89.2 | 31.9 | 61.2 | 91.5 | 96.6 | 16.9 | 450
6 | Cc1c(C(=O)N[C@@H](Cc2ccccc2)C(=O)C(=O)NCCN2CCOCC2)oc2ccccc2c1=O | 9.6 | 0 | 0 | 23.9 | 69.6 | 0 | 8170

Continued, values first:

Row | inhibition [1] [%] | inhibition [2] [%] | inhibition (Cathepsin B (Bos taurus) [3]) [%] | inhibition (Cathepsin B (Bos taurus) [4]) [%] | inhibition [5] [%] | inhibition (Cathepsin B (Bos taurus) [6]) [%] | IC50 [7] [nM] | Compound
7 | 87.7 | 54.2 | 55.4 | 79.9 | 99.1 | 21.5 | 8730 | NC(=O)C(=O)[C@H](Cc1ccccc1)NC(=O)c1cc(=O)c2ccccc2o1
8 | 78.9 | 10.1 | 49 | 82.1 | 98.3 | 0 | 530 | Cc1c(C(=O)N[C@@H](Cc2ccccc2)C(=O)C(=O)NCCc2ccccc2)oc2ccccc2c1=O
9 | 81.5 | 22.4 | 63.2 | 91.5 | 98.1 | 14.4 | 240 | Cc1c(C(=O)N[C@@H](Cc2ccccc2)C(=O)C(N)=O)oc2ccccc2c1=O
10 | 66.8 | 7.4 | 35.3 | 41.4 | 95.7 | 0 | 4530 | Cc1c(C(=O)N[C@@H](Cc2ccccc2)C(=O)C(=O)NCCc2ccccc2)oc2cc3c(cc2c1=O)OCCO3
11 | 100 | 100 | 96.6 | 100 | 100 | 96 | – | CC(C)[C@H](NC(=O)OCc1ccccc1)C(=O)NC(C=O)Cc1ccccc1 (stereo partly drawn) (Cbz-Val-[ξF]-aldehyde)
12 | 65.3 | 8.1 | 21.3 | 67.9 | 95.6 | 0 | 720 | Cc1c(C(=O)N[C@@H](Cc2ccccc2)C(=O)C(=O)NCc2ccccc2)oc2ccccc2c1=O
13 | 24.6 | 1.7 | 0 | 42.2 | 74.9 | 0 | > 20000 | Cc1c(C(=O)N[C@@H](Cc2ccccc2)C(=O)C(=O)NC(C)C)oc2cc3c(cc2c1=O)OCCO3
